From patent publication US11648291B2, “Method of using PRD, PRD-S TAD, ZF7 peptide or mixture thereof to inhibit cellular response to inflammatory stimuli or treat cytokine-storm-mediated diseases” (GUANGZHOU MEDICAL UNIVERSITY, priority 2020, dated 2023)
Values joined by “and” are separate entries in the source; they are usually repeats but may differ in a detail not shown here. Identical values can stand only once.

What was measured:
[1] = tested on: cellular response to TNFα, IL-1β, and LPS; experiment: Cellular response to TNFα, IL-1β and LPS, data not shown (control peptide, biotin-tagged peptides); type: cell-based; settings: for effect of biotin on the activity of the peptide: biotin attached to the N-terminus
Description: (§1) In order to test the hypotheses that the PRD and TAD peptides inhibit the response to pro-inflammatory stimuli such as TNFα, IL-1β, and LPS, the peptides were synthesized and transfected into HCT-8 cells using a protein transfection reagent (Pierce). […] Next, we tested whether they can inhibit the expression of genes induced by TNFα, IL-1β, and LPS in human PBMCs. Both peptides indeed inhibited the expression of IL-6, IL-1β, IL-8, and arginase induced by TNFα, IL-1β, or LPS (FIG. 4B). Since both peptides are highly hydrophobic, we tested whether they can penetrate cells. Indeed, both peptides inhibited TNFα- or IL-1β-induced IL-8 expression with or without the transfection agent in HCT-8 cells, although it took more peptides to produce the similar level of inhibition (FIG. 4C, left panel). […] We tested a random peptide sequence ([…], SEQ ID NO:41) as a control and it had no effect on the cellular response to TNFα, IL-1β, and LPS (data not shown).
(§2) Recent findings identified the ZF7 (zinc finger domain 7) as the key domain for A20 to suppress inflammation (FIG. 6A). We hypothesized that ZF7 peptide inhibit the TNFα response just as PRD and TAD peptides do. […] Next, we tested whether ZF7 inhibits LPS response in vivo. We injected mice with a high dose of LPS (200 μg/mouse) or LPS+ZF7 (200 μg/mouse) and collected the sera after 3 hours. […] In order to tract ZF7 peptide inside cells, biotin was attached to the N-terminus to ZF7 peptide.

[2] = tested on: TNFα-induced IL-8 expression in HCT-8 cells; experiment: TNFα/IL-1β-induced IL-8 expression in HCT-8 cells (IL-8 ELISA); type: cell-based, human; settings: for expression of IL-8 by the peptides themselves: no stimulus; for TNFα- or IL-1β-induced IL-8 expression: HCT-8, with or without the transfection agent, 1 μg/ml, TNFα 2 ng/ml or IL-1β 1 ng/ml, more peptide needed without transfection
Procedure: The indicated amount of the peptides was transfected into HCT-8 as described in the method. The transfected cells were stimulated with TNFα (4 hours after peptide transfection) for 24 hours. IL-8 expression was measured by ELISA. The results are the representative of 3 similar experiments.
(§3) HCT-8 cells were transfected with the peptides or just treated with them without transfection (1 μg/ml) and stimulated with TNFα (2 ng/ml) or IL-1-β (1 ng/ml) for 24 hours. PMBCs were treated with the indicated amount of each peptide (no transfection) and stimulated with TNFα (2 ng/ml) for 24 hours. IL-8 expression was measured by ELISA. The results are the representative of 2 similar experiments.
HCT-8 cells were stimulated with TNFα (2 ng/ml) with the indicated amount of PRD-S peptide for 24 hours. IL-8 expression was measured by ELISA.
Human PBMCs and THP-1 cells were cultured in RPMI-1640 while FLS and HCT-8 cells in DMEM, supplemented with 10% fetal bovine serum and maintained in a humidified incubator at 37° C. with 5% CO2 in air.
(§4) IL-8 LEISA kit was purchased from ThermoFisher and ELISA was performed according to the manufacturer's instruction.
Peptides were transfected into the cells using Pierce Protein Transfection Reagent Kit™ according to the manufacturer's instruction. The Pierce Reagent in methanol was pipetted into a tube and the solvent was evaporated in the hood. Peptides were diluted in PBS and mixed with the dried Pierce Reagent. The peptides/Reagent complex was added to the cells in serum-free medium. After 4 hours, the medium containing serum was added to the cells and the cells were used for experiments.
as §1
Based on the sequence analysis of the YAP1 mutants (FIG. 2A), we tested whether the shortest PRD peptide (M1) inhibits the TNFα response. We named this peptide as PRD-S(small).
as §2

[3] = tested on: TNFα response in HCT-8 cells (C, A20 KD, YAP KD); experiment: TNFα response (IL-8 ELISA) in control, A20 KD and YAP KD HCT-8 cells; type: cell-based, human; settings: TNFα 2 ng/ml overnight
Procedure: HCT-8 cells (C, A20 KD, YAP KD) were treated with PRD, TAD, or ZF7 peptide (1 μg/ml) and stimulated with TNFα (2 ng/ml) overnight. IL-8 levels in the medium were measured by ELISA. The results are the representative of 2 similar experiments. IL-8 LEISA kit was purchased from ThermoFisher and ELISA was performed according to the manufacturer's instruction. Next, we investigated how PRD, TAD, and ZF7 peptides inhibit the TNFα response. The PRD, TAD, and ZF7 peptides have the same effect as either YAP9 OE (over-expression) or A20 OE, respectively. Since YAP9 OE or A20 OE is futile in the absence of the other (FIGS. 5B and 5C), PRD or TAD peptide should also require the presence of A20 while ZF7 peptide the presence of YAP9. Indeed, our data supported this notion. When both YAP9 and A20 are present (C), all 3 peptides inhibited the TNFα response.

[4] = tested on: gene expression induced by TNFα, LPS, or IL-1β in human PBMCs; experiment: Gene expression induced by TNFα, LPS or IL-1β in human PBMCs (ELISA, LegendPlex); type: cell-based; settings: transfected PRD 1 μg or TAD 0.5 μg, TNFα 2 ng/ml, LPS 50 ng/ml or IL-1β 2 ng/ml, 24 hours
Procedure: PBMCs were transfected with either PRD (1 μg) or TAD (0.5 μg) as described in the method. The transfected cells were stimulated with TNFα (2 ng/ml), LPS (50 ng/ml), or IL-1β (2 ng/ml), 4 hours after peptide transfection, for 24 hours. IL-8 expression was measured by ELISA and IL-6, IL-1β, and arginase levels were measured by flow cytometry using LegendPlex as described in the method. The results are the representative of 3 similar experiments.
as §3, §4
All steps of PBMC preparation were carried out at room temperature. The blood from the same donor was pooled and mixed 1:1 with pre-warmed (room temperature) 1×PBS (without Ca^2+ or Mg^2+). […]
To simultaneously quantify the concentration of the soluble inflammatory cytokines and chemokines, the cell culture supernatant was analyzed by using the bead-based multiplex LEGENDplex™ (Biolegend) according to the manufacturer's instruction. […]

LPS response in mice = experiment: LPS response in mice: serum cytokines and chemokines by LegendPlex (Table 1); type: in vivo, C57BL/6 mice
Procedure: as §2
Table.1 ZF7 peptide inhibits the LPS response in mice. C57BL/6 mice (n=2) were injected intraperitoneally with LPS (200 μg/mouse) or LPS (200 μg/mouse)+ZF7 peptide (200 μg/mouse) and the sera were collected after 3 hours. The cytokines and chemokines in the sera were measured by LegendPlex according to the manufacturer's instruction. The number represents pg/ml.

LPS-induced mortality = LPS-induced mortality in mice; type: in vivo, mice (C57B/6); settings: mice n=5, LPS 200 μg + ZF7 300 μg i.p., observed 7 days; LPS control group 60% mortality
Procedure: Mice (8-week old, C57B/6, n=5) were injected with LPS (200 μg) or LPS (200 μg)+ZF7 (300 μg) in 200 μl PBS intraperitoneally.
Since ZF7 inhibited LPS-induced cytokine production in mice (Table 1), we next tested whether ZF7 peptide can protect mice from LPS-induced mortality.

[5] = HCT-8, peptides transfected, TNFα 24 hours, ELISA
[6] = control HCT-8 (both YAP9 and A20 present), peptide 1 μg/ml
[7] = serum 3 hours after i.p. LPS 200 μg/mouse + ZF7 200 μg/mouse, one line per mouse (n=2)

Row | Sequence | effect of biotin on the activity of the peptide [1] | TNFα-induced IL-8 expression [2, 5] | expression of IL-8 by the peptides themselves ([2]; HCT-8, peptides transfected) | TNFα- or IL-1β-induced IL-8 expression ([2]; 24 hours) | TNFα response (IL-8) ([3]; A20 KD HCT-8, peptide 1 μg/ml) | TNFα response (IL-8) ([3]; YAP KD HCT-8, peptide 1 μg/ml) | TNFα response (IL-8) [3, 6] | expression of IL-6, IL-1β, IL-8, and arginase induced by TNFα, IL-1β, or LPS [4] | other results
1 | ARNDCEQGHILKMFPSTWYV [random peptide sequence, reference compound] | – | – | – | – | – | – | – | – | effect on the cellular response to TNFα, IL-1β, and LPS ([1]; control peptide): no effect
2 | GQPPSQPPQGQGPPSGPGQPAPAATQAAPQ (listed as Homo sapiens) [PRD] | did not affect the activity | suppressed | did not affect | inhibited | significantly less effective | retained their full inhibitory capacity | inhibited | inhibited | –
3 | PPKQRCRAPACDHFGNAKCNGYCNECYQFKQMYG (listed as Homo sapiens) [ZF7] | did not affect the activity | – | – | – | retained its full inhibitory capacity | ineffective | inhibited | – | all the cytokines and chemokines measured in sera (LPS response in mice; mice, LPS 200 μg/mouse + ZF7 200 μg/mouse, sera after 3 hours): almost completely inhibited; CCL2 (LPS response in mice; [7]): 238.13 pg/mL and 222.5 pg/mL; GMCSF (LPS response in mice; [7]): <18.38 pg/mL; IFNβ (LPS response in mice; [7]): <4.36 pg/mL; IFNγ (LPS response in mice; [7]): <0.53 pg/mL and 87.58 pg/mL; IL1-β (LPS response in mice; [7]): <4.33 pg/mL and 14.99 pg/mL; IL-1α (LPS response in mice; [7]): <26.12 pg/mL and 57.24 pg/mL; IL-6 (LPS response in mice; [7]): 4142.37 pg/mL and 1570.50 pg/mL; IL-10 (LPS response in mice; [7]): <9.48 pg/mL and 65.31 pg/mL; IL-17A (LPS response in mice; [7]): <4.47 pg/mL and 129.84 pg/mL; IL-27 (LPS response in mice; [7]): <8.56 pg/mL and 137.96 pg/mL; TNFα (LPS response in mice; [7]): <4.10 pg/mL and 44.45 pg/mL; LPS-induced mortality (LPS-induced mortality): no mortality; TNFα response (IL-8 ELISA) ([2]; HCT-8, without transfection, TNFα 2 ng/ml overnight): significantly inhibited
4 | QPPGQGPPSGPGQPA (listed as Homo sapiens) [PRD-S] | – | – | – | – | – | – | – | – | TNFα-induced IL-8 expression ([2]; HCT-8, PRD-S without transfection, TNFα 2 ng/ml, 24 hours): inhibited TNFα-induced IL-8 expression in a dose-response manner
5 | RQAMRININPSTANSPKCQE (listed as Homo sapiens) [TAD] | did not affect the activity | suppressed | did not affect | inhibited | significantly less effective | retained their full inhibitory capacity | inhibited | inhibited | relative potency in suppressing TNFα-induced IL-8 expression ([2]; HCT-8, peptides transfected): more potent than PRD peptide
